# Data: PMC12613816, “Discovery of Novel Isoxazole-Based Small-Molecule Toll-Like Receptor 8 Antagonists” (Journal of Medicinal Chemistry, 2025)
# Tests used:
# TLR2 or TLR4 = test: TNF release in THP-1 macrophages stimulated with TLR2 or TLR4 agonists (Pam3CSK4, Pam2CSK4, LPS); format: cell-based, human; details: 10 μM compound, 24 h
# Text: Mean ± SEM (n = 3). […] Mean + SEM (n = 4).
# THP-1 macrophages = test: Cell viability (MTT) in THP-1 macrophages; format: cell-based, human; details: 24 h, up to 100 μM
# Protocol: Effects on cell viability were assessed by the MTT assay. […] Subsequently, 25 μL of MTT (3-(4,5-dimethylthiazol-2-yl)-2,5-diphenyltetrazolium bromide, 5 mg/mL) was added and incubated for 4 h at 37 °C. After the supernatants were removed, DMSO (4720.1, Carl Roth, Karlsruhe, Germany) was added and absorption at 540 nm was measured. Viability of the untreated cells was defined as 100%. DMSO (10% (v/v); A994.1, Carl Roth, Karlsruhe, Germany) served as a positive control. page 9: Figure S8. […] (A) THP-1 Macrophages were incubated with increasing concentrations of 10 and 12 for 24 h. Cell viability was analyzed using the MTT assay, and normalized to non-stimulated cells (vehicle control). DMSO (10%, v/v) was used as the cytotoxic control. Mean + SEM (n=3). (B) PBMCs
# [1] = tested on: TNF and IL1B mRNA expression; test: TNF and IL1B mRNA expression (qRT-PCR) in TL8-506-stimulated THP-1 macrophages; format: cell-based, human; details: 10 μM, TL8-506 (6 μM) 1 h
# IL-1β release = IL-1β release after TLR8 priming and NLRP3 activation in THP-1 macrophages; format: cell-based, human; details: 10 μM, TL8-506 priming, nigericin or ATP
# Text: (§1) Mean + SEM (n = 3). […] Bar graphs show mean + SEM (n = 3). […] Mean + SEM (n = 4). […] Whole-cell lysates were used for WB. […] Mean + SEM (n = 4). […] Mean + SEM (n = 4). […] Mean ± SEM (n = 3).
# PBMCs = test: Cell viability (LDH release) in PBMCs; format: cell-based, human; details: 24 h, up to 100 μM
# Protocol: In selected experiments, LDH assay was performed according to the manufacturer’s instructions (Thermo fisher Scientific, Darmstadt, Germany). The percentage of LDH release was calculated compared to the 100% cell lysis control.
# (A) THP-1 Macrophages were incubated with increasing concentrations of 10 and 12 for 24 h. Cell viability was analyzed using the MTT assay, and normalized to non-stimulated cells (vehicle control). DMSO (10%, v/v) was used as the cytotoxic control. Mean + SEM (n=3). (B) PBMCs were incubated with 0.6 µM TL8-506 or increasing concentrations of 10 and 12 for 24 h. LDH […]
# maximum LDH release. Mean + SEM (n=3-4).
# p-NF-κB p65, IκBα = test: Western blot of NF-κB pathway proteins in TL8-506-stimulated THP-1 macrophages; format: cell-based, human; details: 10 μM, TL8-506 (0.6 μM) 15 min
# Text: as §1
# Twenty-five μg protein per lane was separated on a 10% TGX Stain-Free FastCast acrylamide gel (1610183, Bio-Rad, Feldkirchen, Germany) containing TEMED (2367, Carl Roth, Karlsruhe, Germany) and ammonium persulfate (A3678, Sigma-Aldrich, Taufkirchen, Germany) using MiniPROTEAN electrophoresis system (Bio-Rad). Gels were blotted on low fluorescence polyvinylidene difluoride membranes (Immobilon-FL PVDF low fluorescence; 05317, Merck, Darmstadt, Germany) using the Trans-Blot Turbo System (Bio-Rad, Feldkirchen, Germany). Membranes were blocked using 5% milk (T145.2, Carl Roth, Karlsruhe, Germany) in TBS-T buffer consisting of TRIS HCl (T3253, Sigma-Aldrich, Taufkirchen, Germany), NaCl (27810.295, VWR, Darmstadt, Germany), and Tween 20 (9127.1, Carl Roth, Karlsruhe, Germany). […] Afterward, they were washed three times with TBS-T and incubated with either rabbit anti-IgG HRP conjugated antibody (no. 7074) or mouse anti-IgG HRP conjugated antibody (no. 7076), all from Cell Signaling Technology (CST, Leiden, The Netherlands), for one h at RT. […] Values of protein expression were analyzed by densitometry and normalized to total protein levels using Image lab 6.1 Bio-Rad, Feldkirchen, Germany.
# [2] = tested on: TLR2/1, TLR2/6, TLR3, TLR4, TLR5, TLR7, TLR9; test: TLR specificity in hTLR-HEK293 reporter cells (NF-κB SEAP); format: cell-based, human; details: 10 μM compound
# Protocol: as §1
# (§2) HEK-Blue cells (4 × 10^4 cells/well) and THP-1 macrophages (4 × 10^4 cells/well, 4 × 10^5 cells/well and 8 × 10^5 cells/well) were seeded in 96-well plates, 24-well plates, or 6-well plates (PS, Sarsted, Germany), respectively. For stimulation experiments, cells were washed with phosphate-buffered saline (PBS, Sigma-Aldrich) and media was replaced with OptiMEM (Thermo Fisher Scientific, Darmstadt, Germany). […] The following TLR ligands were used: Pam2CSK4, Pam3CSK4, poly(I:C) (HMW), LPS from Escherichia coli O111:B4 (LPS-EB Ultrapure), flagellin from Bacillus subtilis (flagellin-BS Ultrapure), CL307, CL075, R848, TL8-506, ODN2006 (all from InvivoGen, Toulouse, France), and Enpatoran (BIOZOL Diagnostika, Germany).
# TLR8 [3] = biological target: T1, TLR8 (Homo sapiens, UniProt Q9NR97); test: Inhibition of TL8-506-stimulated NF-κB activity (SEAP reporter, QuantiBlue) in hTLR8-HEK293 reporter cells; format: cell-based; set-up: host or cells: HEK293 (HEK-Blue hTLR8)
# T1 sequence (Q9NR97 27-1041): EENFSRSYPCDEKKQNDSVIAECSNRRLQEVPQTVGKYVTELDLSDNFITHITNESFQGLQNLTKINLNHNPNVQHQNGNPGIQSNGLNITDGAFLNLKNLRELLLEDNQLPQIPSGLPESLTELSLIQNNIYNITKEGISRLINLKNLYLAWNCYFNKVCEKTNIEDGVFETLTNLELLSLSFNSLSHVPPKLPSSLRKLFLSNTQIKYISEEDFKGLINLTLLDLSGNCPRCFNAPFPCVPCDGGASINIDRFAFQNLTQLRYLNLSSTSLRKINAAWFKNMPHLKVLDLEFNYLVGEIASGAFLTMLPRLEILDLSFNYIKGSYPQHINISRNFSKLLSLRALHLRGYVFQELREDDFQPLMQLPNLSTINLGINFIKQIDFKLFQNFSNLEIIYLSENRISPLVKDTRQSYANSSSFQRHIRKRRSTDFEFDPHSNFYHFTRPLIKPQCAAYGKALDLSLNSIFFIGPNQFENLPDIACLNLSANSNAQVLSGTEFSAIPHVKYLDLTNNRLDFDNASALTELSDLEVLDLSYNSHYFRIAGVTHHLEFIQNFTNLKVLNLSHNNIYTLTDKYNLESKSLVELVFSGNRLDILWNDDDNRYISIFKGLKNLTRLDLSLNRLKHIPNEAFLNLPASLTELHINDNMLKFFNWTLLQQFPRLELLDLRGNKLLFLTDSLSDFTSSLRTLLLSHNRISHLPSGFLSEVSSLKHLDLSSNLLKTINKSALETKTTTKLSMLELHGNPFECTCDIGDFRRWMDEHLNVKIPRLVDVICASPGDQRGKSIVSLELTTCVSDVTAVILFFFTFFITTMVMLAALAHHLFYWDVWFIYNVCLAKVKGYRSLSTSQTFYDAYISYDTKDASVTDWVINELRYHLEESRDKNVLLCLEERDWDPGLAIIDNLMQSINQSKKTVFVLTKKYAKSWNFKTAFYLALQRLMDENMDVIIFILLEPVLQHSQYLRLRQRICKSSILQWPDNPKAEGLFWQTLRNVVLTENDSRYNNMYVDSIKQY
# hTLR7 = biological target: T2, hTLR7 (Homo sapiens, UniProt Q9NYK1); test: Inhibition of CL307-stimulated NF-κB activity (SEAP reporter) in hTLR7-HEK293 reporter cells; format: cell-based
# T2 construct: host or cells: HEK293 (HEK-Blue hTLR7)
# T2 sequence (Q9NYK1 27-1049): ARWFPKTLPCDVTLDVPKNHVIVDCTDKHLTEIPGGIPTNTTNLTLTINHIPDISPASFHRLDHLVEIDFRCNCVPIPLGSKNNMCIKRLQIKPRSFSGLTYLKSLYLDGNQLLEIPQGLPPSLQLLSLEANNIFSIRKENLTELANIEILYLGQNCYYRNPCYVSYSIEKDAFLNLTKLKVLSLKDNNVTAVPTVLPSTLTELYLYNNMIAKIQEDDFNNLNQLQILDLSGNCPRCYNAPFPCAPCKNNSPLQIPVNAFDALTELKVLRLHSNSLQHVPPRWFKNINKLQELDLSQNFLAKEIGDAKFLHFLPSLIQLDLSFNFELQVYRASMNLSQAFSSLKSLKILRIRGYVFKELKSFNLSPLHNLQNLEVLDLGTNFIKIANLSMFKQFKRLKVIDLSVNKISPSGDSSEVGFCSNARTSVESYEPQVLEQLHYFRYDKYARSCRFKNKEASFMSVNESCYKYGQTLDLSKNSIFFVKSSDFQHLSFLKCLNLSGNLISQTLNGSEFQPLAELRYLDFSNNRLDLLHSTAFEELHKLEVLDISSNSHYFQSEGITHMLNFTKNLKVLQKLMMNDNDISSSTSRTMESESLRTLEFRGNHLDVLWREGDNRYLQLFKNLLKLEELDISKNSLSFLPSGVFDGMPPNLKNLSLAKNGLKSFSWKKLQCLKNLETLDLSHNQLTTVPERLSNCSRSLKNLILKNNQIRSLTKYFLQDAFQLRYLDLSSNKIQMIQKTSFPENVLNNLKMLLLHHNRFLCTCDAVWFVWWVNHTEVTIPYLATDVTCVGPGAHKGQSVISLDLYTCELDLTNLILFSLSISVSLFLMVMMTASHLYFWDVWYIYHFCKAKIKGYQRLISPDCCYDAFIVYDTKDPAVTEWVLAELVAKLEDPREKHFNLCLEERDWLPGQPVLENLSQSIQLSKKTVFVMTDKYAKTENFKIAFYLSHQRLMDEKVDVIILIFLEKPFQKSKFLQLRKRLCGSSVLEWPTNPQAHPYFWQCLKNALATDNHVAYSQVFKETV
# Text: as §2, with “For” for “HEK-Blue cells (4 × 10^4 cells/well) and THP-1 macrophages (4 × 10^4 cells/well, 4 × 10^5 cells/well and 8 × 10^5 cells/well) were seeded in 96-well plates, 24-well plates, or 6-well plates (PS, Sarsted, Germany), respectively. For”
# TLR8 [4] = biological target: T1, TLR8; test: Inhibition of TL8-506-stimulated TNF release (ELISA) in PBMCs; details: read-out: IC50 [μM] (95% CI) TNF release PBMCs, 1 h preincubation, TL8-506 (0.6 μM) 4 h
# TLR8 [5] = biological target: T1, TLR8; test: Inhibition of TLR8 agonist-stimulated TNF release (ELISA) in THP-1 macrophages
smiles,measurement,setting,value
CCN1CCC(NC(=O)c2ccc(OCc3c(C)noc3C)c(OC)c2)CC1 [Compound 10],TNF responses to TLR2 or TLR4 agonists,TLR2 or TLR4,without influencing responses
same,Cell viability THP-1 macrophages,THP-1 macrophages,unaffected up to 100 μM
same,mRNA expression levels of TNF and IL1B,[1],significantly inhibited
same,IL-1β release,IL-1β release,blocked
same,Cell viability PBMCs,PBMCs,without affecting cell viability up to 100 μM
same,IκBα level,"p-NF-κB p65, IκBα",increased
same,p-NF-κB p65 level,"p-NF-κB p65, IκBα",reduced
same,Activity against other TLRs (NF-κB activation),[2],no significant activity against other TLRs
COc1cc(C(=O)NCC(c2ccc(C)cc2)N(C)C)ccc1OCc1c(C)noc1C (stereo not shown) [Compound 12],TNF responses to TLR2 or TLR4 agonists,TLR2 or TLR4,without influencing responses
same,Cell viability THP-1 macrophages,THP-1 macrophages,unaffected up to 100 μM
same,Cell viability PBMCs,PBMCs,without affecting cell viability up to 100 μM
same,IC50,TLR8 [3],< 0.5 µM
same,inhibition at 10 µM,"TLR8 [3]; read-out: % inhibition at 10 µM ± SEM (NF-κB activity), 10 µM compound, TL8-506 (0.6 μM) 24 h, hTLR8-HEK293",83 ± 15%
same,IC50,"TLR8 [3]; read-out: IC50 [μM] (95% CI) hTLR8-HEK293, inhibition of NF-κB activity, 1 h preincubation, TL8-506 (0.6 μM) 24 h",0.5 µM
same,Selectivity factor IC50 (TLR7)/ IC50 (TLR8),hTLR7; hTLR7-HEK293 vs hTLR8-HEK293,>102
same,IC50,"hTLR7; read-out: IC50 [μM] (95% CI) hTLR7-HEK293, inhibition of NF-κB activity, 1 h preincubation, CL307 (1.7 µM) 24 h",> 50 µM
same,IC50,TLR8 [4],1.15 µM
same,TNF production in response to TLR8 agonists TL8-506 or CL075,"TLR8 [5]; 10 μM compound, THP-1 macrophages, 24 h",selectively inhibited
same,IC50,"TLR8 [5]; read-out: IC50 [μM] (95% CI) TNF release THP-1 macrophages, 1 h preincubation, TL8-506 (0.6 μM) 4 h, ELISA",0.12 µM
